Data published in patent publication US20120115793A1, “PEPTIDOMIMETIC MACROCYCLES” (Alleron Therapeutics, Inc, priority 2008, published 2012).
Where a SMILES comes first, the peptide text is derived from it. Bridges are numbered along the chain shown (N, C = ends). [ ]: non-standard residue; d: D form. S5 = C=CCCC[C@](C)(N)C(=O)O; Abu = CC[C@H](N)C(=O)O

Tested on: Molt-4 cell line
Format: cell-based
Conditions: 48 h
Experimental: Molt-4 cell line (ATCC catalog #CRL-1582) was grown in specific serum-supplemented media (RPMI-1640, Invitrogen catalog #72400) as recommended by ATCC. A day prior to the initiation of the study, cells were split at optimal cell density (2×10^5-5×10^5 cells/ml) to assure actively dividing cells. The next day, cells were washed twice in serum-free Opti-MEM media (Invitrogen, Catalog #51985) and cells were then plated at optimal cell density (10,000 cells/well) in 50 μl Opti-MEM media or Opti-MEM supplemented with 2%, 4% or 10% human serum (Bioreclamation, catalog #HMSRM) in 96-well white tissue culture plate (Nunc, catalog #136102).
For serum free experiment, peptidomimetic macrocycles were diluted from 2 mM stocks (100% DMSO) in sterile water to prepare 400 μM working solutions. The macrocycles and controls were diluted 10-fold first and then serially two-fold diluted in Opti-MEM in dosing plates to provide concentrations of between 1.2 and 40 μM. 50 μL of each dilution was then added to the appropriate wells of the test plate to achieve final concentrations of the polypeptides equal to between 0.6 to 20 μM. For studies using Opti-MEM supplemented with human serum (Bioreclamation, catalog #HMSRM), peptidomimetic macrocycles were diluted from 10 mM stocks (100% DMSO) in sterile water to prepare 2 mM working solutions. The peptide macrocycles and controls were diluted 10-fold first and then serially two-fold diluted in Opti-MEM in the presence of 2%, 4% or 10% of human serum to provide concentrations of the polypeptides equal to between 6.25 to 200 μM in dosing plates. 50 μL of each dilution was then added to the appropriate welts of the test plate to achieve final concentrations of the polypeptides equal to between 3.125 to 100 μM. Controls included wells without polypeptides containing the same concentration of DMSO as the wells containing the macrocycles, wells containing 0.1% Triton X-100 and wells containing no cells. Plates were incubated for 48 hours at 37° C. in humidified 5% CO2 atmosphere.
At the end of the incubation period, CellTiter-Glo assay was performed according to manufacturer's instructions (Promega, catalog #G7573) and luminescence was measured using Synergy HT Plate reader (BioTek).
The following macrocycles derived from the human MAML peptide sequences were tested in cell viability assays with the MOLT-4 tumor cell line: […]

| Structure (SMILES) | EC50 [µM] |
| --- | --- |
| CC[C@H](C)[C@H](NC(=O)[C@H](CCCNC(=N)N)NC(=O)[C@H](CCCNC(=N)N)NC(=O)[C@H](CCCNC(=N)N)NC(=O)[C@H](CC(C)C)NC(=O)[C@H](C)NC(=O)[C@H](CCC(=O)O)NC(C)=O)C(=O)N[C@@]1(C)CCCC=CCCC[C@@](C)(C(=O)N[C@@H](Cc2c[nH]cn2)C(=O)N[C@@H](Cc2c[nH]cn2)C(=O)N[C@@H](CO)C(=O)N[C@H](C(N)=O)[C@@H](C)O)NC(=O)[C@H](C)NC(=O)[C@H](CS)NC(=O)[C@H](CC(C)C)NC1=O [Compound 7, Ac-EALRRRI$LCA$HHST-NH2] (Ac-EALRRRI[S5]LCA[S5]HHST-NH2; staple 8-12) | 11.5 |
| CC[C@@H]1NC(=O)[C@H](CC(C)C)NC(=O)[C@@](C)(NC(=O)[C@@H](NC(=O)[C@H](CCCNC(=N)N)NC(=O)[C@H](CCCNC(=N)N)NC(=O)[C@H](CCCNC(=N)N)NC(=O)[C@H](CC(C)C)NC(=O)[C@H](C)NC(C)=O)[C@@H](C)CC)CCCC=CCCC[C@@](C)(C(=O)N[C@@H](Cc2c[nH]cn2)C(=O)N[C@@H](Cc2c[nH]cn2)C(=O)N[C@@H](CO)C(=O)N[C@H](C(=O)N[C@@H](C)C(=O)N[C@@H](CCC(=O)O)C(=O)N[C@@H](C)C(=O)N[C@@H](CCCNC(=N)N)C(=O)N[C@@H](Cc2ccc(O)cc2)C(=O)N[C@@H](CCC(=O)O)C(=O)N[C@@H](C)C(=O)N[C@H](C(N)=O)C(C)C)[C@@H](C)O)NC(=O)[C@H](C)NC1=O [Compound 26, Ac-ALRRRI$LAbuA$HHSTAEARYEAV-NH2] (Ac-ALRRRI[S5]L[Abu]A[S5]HHSTAEARYEAV-NH2; staple 7-11) | > 20 |
| CC[C@H](C)[C@H](NC(=O)[C@H](CCCNC(=N)N)NC(=O)[C@H](CCCNC(=N)N)NC(=O)[C@H](CCCNC(=N)N)NC(=O)[C@H](CC(C)C)NC(=O)[C@H](C)NC(C)=O)C(=O)N[C@@]1(C)CCCC=CCCC[C@@](C)(C(=O)N[C@@H](Cc2c[nH]cn2)C(=O)N[C@@H](Cc2c[nH]cn2)C(=O)N[C@@H](CO)C(=O)N[C@H](C(N)=O)[C@@H](C)O)NC(=O)[C@H](C)NC(=O)[C@H](CO)NC(=O)[C@H](CC(C)C)NC1=O [Compound 21, Ac-ALRRRI$LSA$HHST-NH2] (Ac-ALRRRI[S5]LSA[S5]HHST-NH2; staple 7-11) | > 20 |
